Where no end group is shown, it is not given here.
Assays:
[1] = tested on: human liver cancer BEL-7402; assay: Human liver cancer BEL-7402 xenograph nude mice; format: in vivo; details: for T/C(%) relative tumor inhibition rate: 6 times a week, 3 weeks
Method: (§1) Experimental animals: Female BALB/cA nude mice, age 35-40 days, weight 18-22 g, provided by Shanghai Silaike Experimental Animal Co. Ltd., certificate number: SOCK (Shanghai) 2007-0005.
(§2) The tumor of xenograph nude mice grew to 100˜300 mm^3. Tumor mice were divided into different groups for drug testing. In the experiment below, there were 12 nude mice in negative control group, and 6 nude mice in the group with tested drug. Tumor diameter was measured three times each week, and mice weight was measured at the same time.
(§3) T/C (relative tumor inhibition rate) % was calculated as below: • (1) tumor volume, TV, calculated as below: TV=½×a×b^2 • A and b are length and width. • (2) relative tumor volume, RTV, calculated as below: RTV=TVt/TV0. • TV0 ? is tumor volume at the beginning of drug use (d0), TVt is tumor volume at later time point. • (3) relative tumor inhibition rate T/C (%), calculate as below:
(§4) [formula] TRTV: treatment group RTV; CRTV: negative control RTV
[…] Docetaxol was positive control, at dosing of 20 mg/kg, once a week. Negative control was given saline solution. The xenograph nude mice were treated for 3 weeks.

[2] = tested on: liver cancer (H22); assay: Xenograph liver cancer nude mice model (H22); format: in vivo; details: H22, 1 mg/kg
Method: as §1, §2, §3, §4

[3] = tested on: human lung cancer A549; assay: Human lung cancer A549 xenograph nude mice; format: in vivo; details: 6 times a week, 3 weeks
Method: as §1, §2, §3, §4
Peptide SEQ ID No:1 was given through tail vein (IV), at dosing of 0.5 mg/kg, 0.25 mg/kg, and 0.125 mg/kg, 6 times a week. Docetaxol was positive control, at dosing of 20 mg/kg, once a week. Negative control was given saline solution. The xenograph nude mice were treated for 3 weeks.

[4] = tested on: α-SMA protein; assay: Western blot of α-SMA protein expression in HSC; format: cell-based, SD rat; details: FIG. 5
Method: HSC from SD rats were separated using centrifuging on gradient created by Pronase-collagenase and Nycodenz. HSC cells at 1.5×10^5/cm2 was plated at 6-well plate, or culture dish (100 mm diameter). The culture medium is DMEM with 20% serum from newborn calf. The purity of HSC cells was determined using Vitamin A self-fluorescence and anti-Desmin immunocytochemistry experiments. Cell viability was determined using trypan blue staining. First generation HSC's purity and viability were 90% and 95% respectively. HSC can self-activate if grown in non-ECM condition, which means HSC can express α-SMA, and Vitamin A drop disappears. After cell fusion, activated HSC is released with trypsin, and propagate.
Collect cells and add cell lysis buffer, extract total protein. Total protein amount was determined using Bradford assay. 40 μg total protein was examined using 10% SDS polyacrylamide gel. The gel was probed using monoclonal antibody against α-SMA.

[5] = tested on: human stomach cancer SGC-7901; assay: Human stomach cancer SGC-7901 xenograph nude mice; format: in vivo; details: 0.125 mg/kg IV, 6 times a week, 3 weeks
Method: as §1, §2, §3, §4
Peptide SEQ ID No:1 was given through tail vain (IV), at dosing of 1 mg/kg, 0.5 mg/kg, 0.25 mg/kg, 0.125 mg/kg, and 0.0625 mg/kg, 6 times a week. 5-FU was positive control, at dosing of 25 mg/kg, once a week. Negative control was given saline solution. The xenograph nude mice were treated for 3 weeks.

With “SKVTKKYHEVLQLRPKTGVRGLHKSLTDVALEHHEECDCVCRGSTGG-OH (cysteines drawn unpaired) [Peptide SEQ ID NO:1]” the “T/C(%) relative tumor inhibition rate” value ([1]; 0.0625 mg/kg IV) was 58.56%, the “T/C(%) relative tumor inhibition rate” value ([1]; 0.125 mg/kg IV) was 62.10% and the “T/C(%) relative tumor inhibition rate” value ([1]; 0.25 mg/kg IV) was 69.06%. The “T/C(%) relative tumor inhibition rate” value ([1]; 0.5 mg/kg IV) was 64.90%, the “inhibition, tumor” value ([1]; BEL-7402, 1 mg/kg) was 39.7% and the “inhibition rate, tumor” value [2] was 67.8%. For the same substance, the “T/C(%) relative tumor inhibition rate” value ([3]; 0.125 mg/kg IV) was 48.96%, the “T/C(%) relative tumor inhibition rate” value ([3]; 0.25 mg/kg IV) was 47.98% and the “α-SMA protein expression (Western Blot)” value ([4]; after 48 hours) was “starts to decrease α-SMA protein expression”. The “α-SMA protein expression (Western Blot)” value ([4]; after 72 hours) was “significantly decrease α-SMA protein expression” and the “T/C(%) relative tumor inhibition rate” value [5] was 47.66%.
